Experimental findings from article PMC4870679, “A novel pathway for fungal D-glucuronate catabolism contains an L-idonate forming 2-keto-L-gulonate reductase” (Scientific Reports, 2016) are described below.

Test [1] deals with GluC (2-keto-L-gulonate reductase). Description: NADH consumption at […] nm, Konelab analyser. The test is classed as biochemical, Aspergillus niger. Conditions: 400 uM NADH, 50 mM Tris pH 7.
Test [2] shares this test system. Description: NADH formation at […] nm, Konelab analyser. The test is classed as biochemical, Aspergillus niger. The settings on record: 400 uM NAD+, 50 mM Tris pH 8; reverse direction.

Consider `O=C(O)C(=O)[C@@H](O)[C@H](O)[C@@H](O)CO` [2-keto-L-gulonate], for which, in test [1], the Km is 30 mM.
Take `O=C(O)[C@H](O)[C@@H](O)[C@H](O)[C@@H](O)CO` [L-idonate]: the Km in test [2] was 20 mM.
